Patent publication US12171793B2, “Method of activating lactic acid bacteria” (INFANT BACTERIAL THERAPEUTICS AB, priority 2015, dated 2024)
“Also recorded” adds a separate entry of the source.

Assays:
[1] = tested on: Lactobacillus reuteri DSM 17938; assay: Evaluation of activation time by turbidity (BioScreen) in simulated intestinal medium STMmod 3; assay type: cell-based; details: STMmod 3, 37° C., OD 600 nm; with citrate compared to without citrate; FIG. 3
Method: The activation time in simulated intestinal medium (STMmod 3, see Table 4) of the two variants of lyophilized DSM 17938 (C and N) were analyzed using a computer-controlled incubator/reader/shaker (BioScreen C MBR) that measure the change in turbidity over time. The medium STMmod 3 was used to mimic the conditions in the intestine. To each well 200 μl of STMmod 3 was added. Thereafter different volumes (100, 60, 40, 30, 25 μl) of bacterial suspension (vials with lyophilized bacteria suspended in 1 ml dH2O) were added. Volumes were adjusted to 300 μl with dH2O. The analysis of each inoculation volume was done in triplicates. The BioScreen analysis was run at 37° C. for 24 hours with a 15 min interval between measurements (OD 600 nm), with the addition of a 10 s shaking step before each measuring point. [table]

[2] = tested on: Lactobacillus reuteri DSM 17938; assay: Growth of Lactobacillus reuteri in simulated intestinal substrate (SIS); assay type: cell-based; details: FIG. 1; GOS or glucose plus electron acceptor, 15 mM of each; 16 h at 37° C., anaerobic
Method: The growth of L. reuteri DSM 17938 on different combinations of sugar and electron acceptors was evaluated in “Simulated intestinal substrate” (SIS). [table] Lactobacillus reuteri cells of strain DSM 17938 were first grown over night in MRS broth (Oxoid) at 37° C. After washing in phosphate-buffered saline (PBS) the bacteria were diluted 10 × in PBS. 10 μl of bacterial suspension was thereafter inoculated to 10 ml SIS (with addition of sugar and electron acceptor), and the bacteria were cultivated for 16 h at 37° C. during anaerobic conditions and no shaking. The growth of Lactobacillus reuteri DSM 17938 in SIS with lactose and citrate as the sugar-electron acceptor pair is evaluated in the same way as described above for GOS and citrate as the electron acceptor. The above described substrate (SIS) is used.

O=C(O)CC(O)(CC(=O)O)C(=O)O [Citrate]
time to reach a 3% increase in OD (activation time) [1]: shorter time; also recorded: shorten the activation time
growth of Lactobacillus reuteri DSM 17938 in simulated intestinal substrate [2]: highest effect
